Legend:
Type in all cases: in vitro ADME
Settings in all cases: 30 min, 37 °C
CYP1A2 = molecular target: T1, CYP1A2 (Homo sapiens, UniProt P05177); assay: Monooxygenases activity screening, CYP1A2; parameters: key: +, detected; -, not detected
T1 construct: purchased Discovery Life Sciences (Huntsville, LA, USA); host or cells: baculovirus-infected insect cells (microsomes, Supersomes)
T1 sequence (P05177 1-516): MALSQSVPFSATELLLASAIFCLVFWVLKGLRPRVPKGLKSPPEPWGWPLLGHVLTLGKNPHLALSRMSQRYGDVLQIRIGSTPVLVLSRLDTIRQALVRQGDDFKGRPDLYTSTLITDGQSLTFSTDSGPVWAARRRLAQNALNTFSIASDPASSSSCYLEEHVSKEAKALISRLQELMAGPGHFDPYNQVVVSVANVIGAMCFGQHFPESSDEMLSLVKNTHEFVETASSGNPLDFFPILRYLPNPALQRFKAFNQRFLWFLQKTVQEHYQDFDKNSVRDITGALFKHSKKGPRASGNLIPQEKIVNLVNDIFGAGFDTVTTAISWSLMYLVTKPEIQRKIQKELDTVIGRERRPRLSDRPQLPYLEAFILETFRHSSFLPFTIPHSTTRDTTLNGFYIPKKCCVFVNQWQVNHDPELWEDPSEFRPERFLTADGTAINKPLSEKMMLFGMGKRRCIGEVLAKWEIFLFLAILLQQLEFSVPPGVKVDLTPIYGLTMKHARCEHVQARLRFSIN
Protocol: (§1) For incubations with CYP2A6 or CYP2C9, phosphate buffer was replaced with 90 mM Tris buffer, according to the manufacturer’s guideline. […] All incubations were done in duplicate and concentrations were fixed. Verapamil (25 µM) was incubated as a positive control.

CYP2B6 = molecular target: T2, CYP2B6 (Homo sapiens, UniProt P20813); assay: Monooxygenases activity screening, CYP2B6; parameters: key: +, detected; -, not detected
T2 construct: purchased Discovery Life Sciences (Huntsville, LA, USA); host or cells: baculovirus-infected insect cells (microsomes, Supersomes)
T2 sequence (P20813 1-491): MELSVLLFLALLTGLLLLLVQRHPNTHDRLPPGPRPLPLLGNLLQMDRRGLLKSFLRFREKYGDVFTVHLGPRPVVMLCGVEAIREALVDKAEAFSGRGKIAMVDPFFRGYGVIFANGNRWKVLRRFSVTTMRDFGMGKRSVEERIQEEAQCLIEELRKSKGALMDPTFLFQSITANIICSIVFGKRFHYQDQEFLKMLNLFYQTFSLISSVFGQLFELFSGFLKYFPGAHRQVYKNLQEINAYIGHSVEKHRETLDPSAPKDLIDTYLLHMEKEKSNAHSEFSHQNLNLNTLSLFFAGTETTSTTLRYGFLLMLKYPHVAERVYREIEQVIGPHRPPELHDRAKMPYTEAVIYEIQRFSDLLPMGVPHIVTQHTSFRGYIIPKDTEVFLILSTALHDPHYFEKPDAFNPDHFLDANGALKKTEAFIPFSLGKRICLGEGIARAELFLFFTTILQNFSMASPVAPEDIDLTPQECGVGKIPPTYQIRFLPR
Protocol: as §1

CYP2C9 = molecular target: T3, CYP2C9 (Homo sapiens, UniProt P11712); assay: Monooxygenases activity screening, CYP2C9; parameters: key: +, detected; -, not detected
T3 construct: purchased Discovery Life Sciences (Huntsville, LA, USA); host or cells: baculovirus-infected insect cells (microsomes, Supersomes)
T3 sequence (P11712 whole entry): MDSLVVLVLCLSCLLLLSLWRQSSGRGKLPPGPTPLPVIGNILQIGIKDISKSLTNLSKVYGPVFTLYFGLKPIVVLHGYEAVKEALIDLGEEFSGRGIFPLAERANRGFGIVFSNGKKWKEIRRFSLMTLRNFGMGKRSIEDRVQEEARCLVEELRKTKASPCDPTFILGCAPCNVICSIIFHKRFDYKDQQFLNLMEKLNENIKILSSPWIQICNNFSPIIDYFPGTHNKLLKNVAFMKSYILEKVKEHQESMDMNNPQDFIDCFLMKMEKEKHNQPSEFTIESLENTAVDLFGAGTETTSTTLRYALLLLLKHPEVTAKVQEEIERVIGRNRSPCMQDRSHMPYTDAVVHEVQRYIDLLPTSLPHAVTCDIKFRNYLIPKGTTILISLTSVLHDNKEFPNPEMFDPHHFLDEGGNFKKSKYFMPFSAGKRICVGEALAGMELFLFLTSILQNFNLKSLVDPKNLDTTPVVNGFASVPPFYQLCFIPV
Protocol: as §1

CYP3A4 = molecular target: T4, CYP3A4 (Homo sapiens, UniProt P08684); assay: Monooxygenases activity screening, CYP3A4; parameters: key: +, detected; -, not detected
T4 construct: purchased Discovery Life Sciences (Huntsville, LA, USA); host or cells: baculovirus-infected insect cells (microsomes, Supersomes)
T4 sequence (P08684 whole entry): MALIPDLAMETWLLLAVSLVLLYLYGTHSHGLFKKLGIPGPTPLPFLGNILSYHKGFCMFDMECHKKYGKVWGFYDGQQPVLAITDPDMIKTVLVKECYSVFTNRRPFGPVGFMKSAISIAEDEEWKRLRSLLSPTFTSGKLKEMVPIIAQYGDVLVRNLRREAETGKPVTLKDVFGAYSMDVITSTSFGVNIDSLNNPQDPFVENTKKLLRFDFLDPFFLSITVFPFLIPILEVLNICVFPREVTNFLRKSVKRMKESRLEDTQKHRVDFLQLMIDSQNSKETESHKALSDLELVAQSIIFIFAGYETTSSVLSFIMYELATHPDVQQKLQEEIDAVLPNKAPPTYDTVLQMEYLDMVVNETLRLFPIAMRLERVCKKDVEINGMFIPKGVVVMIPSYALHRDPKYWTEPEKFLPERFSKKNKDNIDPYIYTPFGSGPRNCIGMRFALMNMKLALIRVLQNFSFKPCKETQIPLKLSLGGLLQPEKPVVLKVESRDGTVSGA
Protocol: as §1

CYP2E1 = molecular target: T5, CYP2E1 (Homo sapiens, UniProt P05181); assay: Monooxygenases activity screening, CYP2E1; parameters: key: +, detected; -, not detected
T5 construct: purchased Discovery Life Sciences (Huntsville, LA, USA); host or cells: baculovirus-infected insect cells (microsomes, Supersomes)
T5 sequence (P05181 whole entry): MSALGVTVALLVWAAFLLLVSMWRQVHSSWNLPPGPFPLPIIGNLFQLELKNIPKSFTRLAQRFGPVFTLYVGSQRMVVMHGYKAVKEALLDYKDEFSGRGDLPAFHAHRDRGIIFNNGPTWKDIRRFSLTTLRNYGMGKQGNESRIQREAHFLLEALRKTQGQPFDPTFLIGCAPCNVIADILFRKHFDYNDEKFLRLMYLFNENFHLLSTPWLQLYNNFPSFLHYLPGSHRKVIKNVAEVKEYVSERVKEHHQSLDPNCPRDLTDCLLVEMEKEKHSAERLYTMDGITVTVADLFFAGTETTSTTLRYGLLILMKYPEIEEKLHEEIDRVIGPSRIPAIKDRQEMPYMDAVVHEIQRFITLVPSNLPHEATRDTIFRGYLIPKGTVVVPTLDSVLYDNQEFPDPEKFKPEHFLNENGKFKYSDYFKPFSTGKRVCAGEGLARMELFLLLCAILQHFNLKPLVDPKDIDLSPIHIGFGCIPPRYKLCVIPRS
Protocol: as §1

CYP3A5 = molecular target: T6, CYP3A5 (Homo sapiens, UniProt P20815); assay: Monooxygenases activity screening, CYP3A5; parameters: key: +, detected; -, not detected
T6 construct: purchased Discovery Life Sciences (Huntsville, LA, USA); host or cells: baculovirus-infected insect cells (microsomes, Supersomes)
T6 sequence (P20815 whole entry): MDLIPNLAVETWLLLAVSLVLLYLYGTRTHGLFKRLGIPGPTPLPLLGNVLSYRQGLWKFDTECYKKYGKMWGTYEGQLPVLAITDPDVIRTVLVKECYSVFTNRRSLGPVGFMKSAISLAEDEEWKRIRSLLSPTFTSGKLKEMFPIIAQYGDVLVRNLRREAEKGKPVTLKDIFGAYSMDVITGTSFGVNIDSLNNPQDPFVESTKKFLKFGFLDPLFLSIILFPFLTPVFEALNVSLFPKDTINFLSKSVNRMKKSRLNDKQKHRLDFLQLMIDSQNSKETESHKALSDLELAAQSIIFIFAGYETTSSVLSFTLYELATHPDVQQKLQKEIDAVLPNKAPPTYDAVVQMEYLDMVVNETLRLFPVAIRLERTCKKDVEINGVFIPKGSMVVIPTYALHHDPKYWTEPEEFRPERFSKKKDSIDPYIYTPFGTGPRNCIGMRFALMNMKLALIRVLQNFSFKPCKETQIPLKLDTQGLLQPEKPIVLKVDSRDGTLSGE
Protocol: as §1

CYP2C8 = molecular target: T7, CYP2C8 (Homo sapiens, UniProt P10632); assay: Monooxygenases activity screening, CYP2C8; parameters: key: +, detected; -, not detected
T7 construct: purchased Discovery Life Sciences (Huntsville, LA, USA); host or cells: baculovirus-infected insect cells (microsomes, Supersomes)
T7 sequence (P10632 1-490): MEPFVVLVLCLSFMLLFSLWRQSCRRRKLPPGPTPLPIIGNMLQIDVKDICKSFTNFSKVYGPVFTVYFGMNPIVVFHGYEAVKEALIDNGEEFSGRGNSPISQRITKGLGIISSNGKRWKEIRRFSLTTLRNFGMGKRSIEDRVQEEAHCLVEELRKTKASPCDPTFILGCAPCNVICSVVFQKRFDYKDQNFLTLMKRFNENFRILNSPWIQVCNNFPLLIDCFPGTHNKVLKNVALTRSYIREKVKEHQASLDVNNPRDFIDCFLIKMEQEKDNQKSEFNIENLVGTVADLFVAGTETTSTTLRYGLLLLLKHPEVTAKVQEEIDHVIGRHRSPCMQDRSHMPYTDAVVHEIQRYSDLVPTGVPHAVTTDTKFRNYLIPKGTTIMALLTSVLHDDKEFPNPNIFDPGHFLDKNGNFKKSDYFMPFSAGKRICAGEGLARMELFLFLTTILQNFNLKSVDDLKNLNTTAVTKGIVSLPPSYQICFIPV
Protocol: as §1

CYP2A6 = molecular target: T8, CYP2A6 (Homo sapiens, UniProt P11509); assay: Monooxygenases activity screening, CYP2A6; parameters: key: +, detected; -, not detected
T8 construct: purchased Discovery Life Sciences (Huntsville, LA, USA); host or cells: baculovirus-infected insect cells (microsomes, Supersomes)
T8 sequence (P11509 1-494): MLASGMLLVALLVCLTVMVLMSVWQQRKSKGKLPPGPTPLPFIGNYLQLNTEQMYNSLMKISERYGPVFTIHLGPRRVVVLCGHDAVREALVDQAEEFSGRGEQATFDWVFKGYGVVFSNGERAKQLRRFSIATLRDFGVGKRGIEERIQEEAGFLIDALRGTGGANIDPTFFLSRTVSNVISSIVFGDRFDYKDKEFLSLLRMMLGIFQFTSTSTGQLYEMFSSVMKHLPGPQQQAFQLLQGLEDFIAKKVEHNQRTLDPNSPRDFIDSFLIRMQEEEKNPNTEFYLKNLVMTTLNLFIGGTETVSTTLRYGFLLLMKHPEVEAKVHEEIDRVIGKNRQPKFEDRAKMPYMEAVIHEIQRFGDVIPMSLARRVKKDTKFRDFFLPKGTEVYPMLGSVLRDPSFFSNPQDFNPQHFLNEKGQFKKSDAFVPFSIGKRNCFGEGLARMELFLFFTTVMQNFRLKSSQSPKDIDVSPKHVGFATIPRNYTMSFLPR
Protocol: as §1

[1] = molecular target: T9, flavin-containing monooxygenase 3 (FMO3) (Homo sapiens, UniProt P31513); assay: Monooxygenases activity screening, FMO3; parameters: key: +, detected; -, not detected
T9 construct: purchased Discovery Life Sciences (Huntsville, LA, USA); host or cells: baculovirus-infected insect cells (microsomes, Supersomes)
T9 sequence (P31513 1-532): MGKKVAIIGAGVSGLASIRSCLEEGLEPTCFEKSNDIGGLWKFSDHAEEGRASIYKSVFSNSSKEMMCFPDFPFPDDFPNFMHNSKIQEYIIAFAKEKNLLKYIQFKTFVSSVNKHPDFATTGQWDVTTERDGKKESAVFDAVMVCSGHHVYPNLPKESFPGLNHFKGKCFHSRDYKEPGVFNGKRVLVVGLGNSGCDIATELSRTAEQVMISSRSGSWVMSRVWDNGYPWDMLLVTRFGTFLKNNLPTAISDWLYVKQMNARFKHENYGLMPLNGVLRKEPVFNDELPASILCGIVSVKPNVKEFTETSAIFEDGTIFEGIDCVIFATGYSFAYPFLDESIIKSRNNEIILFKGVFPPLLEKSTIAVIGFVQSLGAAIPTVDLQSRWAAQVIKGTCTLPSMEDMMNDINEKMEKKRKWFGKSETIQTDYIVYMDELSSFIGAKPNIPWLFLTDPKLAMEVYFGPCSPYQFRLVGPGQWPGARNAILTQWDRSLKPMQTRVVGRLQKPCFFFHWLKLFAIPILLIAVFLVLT
Protocol: as §1

CYP2C19 = molecular target: T10, CYP2C19 (Homo sapiens, UniProt P33261); assay: Monooxygenases activity screening, CYP2C19; parameters: key: +, detected; -, not detected
T10 construct: purchased Discovery Life Sciences (Huntsville, LA, USA); host or cells: baculovirus-infected insect cells (microsomes, Supersomes)
T10 sequence (P33261 whole entry): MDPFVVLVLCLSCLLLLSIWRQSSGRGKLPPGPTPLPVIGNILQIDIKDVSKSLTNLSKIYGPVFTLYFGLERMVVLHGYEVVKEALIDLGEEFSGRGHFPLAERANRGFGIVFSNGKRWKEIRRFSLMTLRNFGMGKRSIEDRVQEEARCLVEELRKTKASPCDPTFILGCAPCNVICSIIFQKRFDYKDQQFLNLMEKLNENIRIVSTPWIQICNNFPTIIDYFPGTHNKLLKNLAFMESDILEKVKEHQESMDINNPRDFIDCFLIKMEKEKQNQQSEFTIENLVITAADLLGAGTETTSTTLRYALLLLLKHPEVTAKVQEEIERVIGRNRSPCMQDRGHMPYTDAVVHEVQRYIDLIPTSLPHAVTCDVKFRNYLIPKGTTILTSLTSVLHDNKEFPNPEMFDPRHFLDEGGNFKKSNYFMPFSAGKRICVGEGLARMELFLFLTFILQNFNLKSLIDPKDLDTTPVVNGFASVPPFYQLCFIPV
Protocol: as §1

CYP2D6 = molecular target: T11, CYP2D6 (Homo sapiens, UniProt P10635); assay: Monooxygenases activity screening, CYP2D6; parameters: key to one-step metabolite detected in CYP2D6 incubation: +, detected; -, not detected
T11 construct: purchased Discovery Life Sciences (Huntsville, LA, USA); host or cells: baculovirus-infected insect cells (microsomes, Supersomes)
T11 sequence (P10635 whole entry): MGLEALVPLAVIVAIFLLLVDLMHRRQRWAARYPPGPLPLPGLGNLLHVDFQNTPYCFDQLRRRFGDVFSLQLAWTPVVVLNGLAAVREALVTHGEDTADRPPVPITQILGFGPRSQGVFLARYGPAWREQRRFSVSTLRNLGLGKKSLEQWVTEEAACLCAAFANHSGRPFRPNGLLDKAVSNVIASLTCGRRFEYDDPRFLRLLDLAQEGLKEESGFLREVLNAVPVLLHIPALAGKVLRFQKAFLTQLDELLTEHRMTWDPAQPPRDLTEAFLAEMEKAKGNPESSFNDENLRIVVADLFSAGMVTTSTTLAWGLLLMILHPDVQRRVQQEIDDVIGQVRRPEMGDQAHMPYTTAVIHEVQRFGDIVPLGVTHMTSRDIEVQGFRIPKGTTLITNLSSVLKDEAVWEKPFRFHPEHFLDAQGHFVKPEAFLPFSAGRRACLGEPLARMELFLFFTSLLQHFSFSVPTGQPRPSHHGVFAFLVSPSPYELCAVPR
Protocol: as §1

[2] = substrate 4MeO-αP-BP 25 µM, Table S3.2
[3] = substrate 4MeO-αP-VP 25 µM, Table S3.3
[4] = substrate 4MeS-NE-BP 25 µM, Table S3.4

In the case of `CCC(C(=O)c1ccc(O)cc1)N1CCCC1` (centres unmarked) [MO2.2], the “one-step metabolite detected in CYP1A2 incubation” value (CYP1A2; [2]) is reported as “+”, the “one-step metabolite detected in CYP2B6 incubation” value (CYP2B6; [2]) is reported as “-” and the “one-step metabolite detected in CYP2C9 incubation” value (CYP2C9; [2]) is reported as “-”. The “one-step metabolite detected in CYP3A4 incubation” value (CYP3A4; [2]) was “-”, the “one-step metabolite detected in CYP2E1 incubation” value (CYP2E1; [2]) was “-” and the “one-step metabolite detected in CYP3A5 incubation” value (CYP3A5; [2]) was “-”. The “one-step metabolite detected in CYP2C8 incubation” value (CYP2C8; [2]) was “-”, the “one-step metabolite detected in CYP2A6 incubation” value (CYP2A6; [2]) was “-” and the “one-step metabolite detected in FMO3 incubation” value [1, 2] was “-”. The “one-step metabolite detected in CYP2C19 incubation” value (CYP2C19; [2]) was “+” and the “one-step metabolite detected in CYP2D6 incubation” value (CYP2D6; [2]) was “+”.

For `CCCC(C(=O)c1ccc(O)cc1)N1CCCC1` (centres unmarked) [MO3.2], the “one-step metabolite detected in CYP1A2 incubation” value (CYP1A2; [3]) was “+”, the “one-step metabolite detected in CYP2B6 incubation” value (CYP2B6; [3]) was “-” and the “one-step metabolite detected in CYP2C9 incubation” value (CYP2C9; [3]) was “-”. The “one-step metabolite detected in CYP3A4 incubation” value (CYP3A4; [3]) was “+”, the “one-step metabolite detected in CYP2E1 incubation” value (CYP2E1; [3]) was “-” and the “one-step metabolite detected in CYP3A5 incubation” value (CYP3A5; [3]) was “-”. The “one-step metabolite detected in CYP2C8 incubation” value (CYP2C8; [3]) was “+”, the “one-step metabolite detected in CYP2A6 incubation” value (CYP2A6; [3]) was “-” and the “one-step metabolite detected in FMO3 incubation” value [1, 3] was “-”. The “one-step metabolite detected in CYP2C19 incubation” value (CYP2C19; [3]) was “+” and the “one-step metabolite detected in CYP2D6 incubation” value (CYP2D6; [3]) was “+”.

`CCCC(C(=O)c1ccc(OC)cc1)[N+]1([O-])CCCC1` (centres unmarked) [MO3.4] was tested, and the “one-step metabolite detected in CYP1A2 incubation” value (CYP1A2; [3]) was “+”, the “one-step metabolite detected in CYP2B6 incubation” value (CYP2B6; [3]) was “-” and the “one-step metabolite detected in CYP2C9 incubation” value (CYP2C9; [3]) was “-”. For the same compound, the “one-step metabolite detected in CYP3A4 incubation” value (CYP3A4; [3]) was “+”, the “one-step metabolite detected in CYP2E1 incubation” value (CYP2E1; [3]) was “-” and the “one-step metabolite detected in CYP3A5 incubation” value (CYP3A5; [3]) was “-”. The “one-step metabolite detected in CYP2C8 incubation” value (CYP2C8; [3]) was “-”, the “one-step metabolite detected in CYP2A6 incubation” value (CYP2A6; [3]) was “+” and the “one-step metabolite detected in FMO3 incubation” value [1, 3] was “+”. The “one-step metabolite detected in CYP2C19 incubation” value (CYP2C19; [3]) was “-” and the “one-step metabolite detected in CYP2D6 incubation” value (CYP2D6; [3]) was “+”.

For `CCNC(CC)C(=O)c1ccc(S)cc1` (centres unmarked) [MT1.1], the “one-step metabolite detected in CYP1A2 incubation” value (CYP1A2; [4]) was “-”, the “one-step metabolite detected in CYP2B6 incubation” value (CYP2B6; [4]) was “-” and the “one-step metabolite detected in CYP2C9 incubation” value (CYP2C9; [4]) was “-”. For the same compound, the “one-step metabolite detected in CYP3A4 incubation” value (CYP3A4; [4]) was “-”, the “one-step metabolite detected in CYP2E1 incubation” value (CYP2E1; [4]) was “-” and the “one-step metabolite detected in CYP3A5 incubation” value (CYP3A5; [4]) was “-”. The “one-step metabolite detected in CYP2C8 incubation” value (CYP2C8; [4]) was “-”, the “one-step metabolite detected in CYP2A6 incubation” value (CYP2A6; [4]) was “-” and the “one-step metabolite detected in FMO3 incubation” value [1, 4] was “-”. The “one-step metabolite detected in CYP2C19 incubation” value (CYP2C19; [4]) was “-” and the “one-step metabolite detected in CYP2D6 incubation” value (CYP2D6; [4]) was “+”.

From PMC12858467, “In vitro toxicokinetics and metabolic profiling of methoxycathinones and methylthiocathinones using human liver systems and hyphenated mass spectrometry” (Archives of Toxicology, 2025)
